Assay results as given in US10550120B2, “Indole alkaloid compound having immune checkpoint inhibitory action” (TOHOKU UNIVERSITY, priority 2016, dated 2020).

Tests used:
IL-10 = test: Measurement of human IL-10 amount in culture supernatant of MT2 cells with ELISA kit (Test 1); type: cell-based; conditions: 48±2 hours; for activity at 10 µM / activity at 20 µM / activity at 12.5 µM / activity at 25 µM: Homo sapiens, 48 h, DMSO control = 100%, read-out: % against control (IL-10 production)
Method: (§1) MT2 cells from human adult T-cell leukemia were used. Leukemia cells of human adult T-cell leukemia (ATL) express CD4 and CD25 molecules on the cell surface and are considered to be derived from Treg (Chen S. et al., International Immunology 18:269-277 (2005)). MT2 cells were used in experiments as models of Treg since the cells are CD4 positive, CD25 positive, and FOXP3 positive celles derived from ATL.
(§2) The example compounds (compounds 1-17) of the present invention were dissolved in dimethylsulfoxide (DMSO) to prepare each 50 mmol/L solution, which was preserved at −80° C.
The amount of IL-10 production in the control and the example compounds was measured to evaluate the inhibitory effect on IL-10 production of the example compounds of the present invention.
(1) MT2 cells are suspended in RPMI1640 medium (hereinafter referred to as “the medium”) supplemented with 10% fetal calf serum (FCS) and 1% penicillin/streptomycin (P/S) to give 3×10^5 cells/mL suspension, and 1 mL of the suspension was added to each well of a 24-well plate. […] The cell cultures were incubated 48±2 hours in a CO2 incubator (under a condition of 37° C., 5 CO2). DMSO was diluted 50-fold with the medium, and 20 μL of the diluent was added to the well to make a control of compounds 1-7. In addition, DMSO was diluted 50-fold with the medium, and 25.0 μL of the diluent was added to the well to make a control of compounds 8-17.
(2) A piece of the cell culture was sampled to count cells with a cell counter (BIO RAD TC-20). The cell culture was centrifuged at 300×g for 5 minutes and the supernatant was collected as a sample for IL-10 measurement. When not measured within a day, it was preserved in a freezer at −80° C.
(3) Human IL-10 ELISA kit II (BD OptEIA) was used on the measurement. The kit contains wells treated with anti-IL-10 antibody (8 wells/strip), Standard/Sample diluent, vials comprising freeze-dried IL-10 Standard (1280 pg/vial), ELISA diluent, 20× Wash Buffer, Detection antibody, Enzyme Concentrate, TMB One Step Substrate Reagent, Stop Solution, and cover sheets.
(4) To a vial containing IL-10 Standard was added […] Standard/Sample diluent, and the vial was stood at room temperature for 15 minutes to be dissolved (Standard sample stock solution 1L-10 concentration: 500 pg/mL).
(5) Standard samples in each concentration for making a standard curve were prepared as follows. Firstly, to 300 μL of the medium was added 300 μL of the standard sample stock solution, and the mixture was mixed with a Voltex mixer (250 pg/mL). Next, 300 μL of the standard sample of 250 pg/mL was added to 300 μL of the medium and the mixture was mixed with a Voltex mixer (125 pg/mL). The same procedures were successively repeated to prepare standard solutions of 62.5, 31.25, 15.625, and 7.8125 pg/mL. As 0 pg/mL standard solution, the medium was used.
(6) A kit containing wells treated with anti-IL-10 antibody (8 wells/strip) was warmed to room temperature and 50 μL of ELISA diluent in the kit was added into each well.
(7) To each well containing ELISA diluent, 100 μL of the standard samples of each concentration and each test sample (diluded 50-100 fold with medium) were added.
(8) After the wells were sealed with a cover sheet and gently tapped, they were left at room temperature for 2 hours.
(9) 20× Wash Buffer was diluted 20-fold with water to prepare 1× Wash Buffer.
(10) After the reaction was done for 2 hours, the solutions in each well were aspirated and washed 5 times with 300 μL of 1× Wash Buffer.
(11) After Enzyme Concentrate (4 μL per 8 wells) was added to Detection antibody (1 ml per 8 wells), the solution was mixed by a Vortex mixer and then a necessary amount of Working Detector was prepared.
(12) 100 μL of Working Detector was added to each well, covered with a cover sheet, and the wells were left at room temperature for an hour.
(13) After the reaction was done for an hour, the solutions in wells were aspirated and washed 7 times with 300 μL of 1× Wash Buffer. […]

CTLA-4 = test: Intracellular staining of MT2 cells with fluorescence-labeled anti-CTLA-4 antibody and measurement by flow cytometry; type: cell-based, human; conditions: 48±2 hours; for Peak MFI of CTLA-4: isotype IgG2a subtracted, average of n=3
Method: as §1, §2
(1) MT2 cells were suspended in RPMI1640 medium (hereinafter referred to as “the medium”) supplemented with 10% fetal calf serum (FCS) and 1° penicillin/streptomycin (P/S) to give 3×10^5 cells/mL suspension and 3 mL of the suspension was added to each well of a 6-well plate. To each well were added 0.6 or 1.2 μL of the test compound solutions (compounds 1, 2, and 4), 0.75 or 1.5 μL of the test compound solution (compound 9), and 1.5 μL of the test compound solutions (compounds 8 and 10-17), and the cell cultures were incubated in a CO2 gas incubator (under 37° C., 5% CO2) and cultured for 48±2 hours. As a control of compound 1, 2 and 4, only 1.2 μL of DMSO was added to the well. In addition, as a control of compound 8-17, only 1.5 μL of DMSO was added to the well.
(2) A piece of the cell culture was sampled to count cells with a cell counter (BIO RAD TC-20). The cell culture was centrifuged at 300×g for 5 min, and the supernatant was removed. The residue was suspended in phosphate buffered saline (supplemented with 1% bovine serum albumin (BSA), without calcium and magnesium) (1% BSA/PBS) to adjust the concentration of cells to 5-10×10^6 cells/mL.
(3) To 5 ml tube, each 50 μL of the cell suspension was added.
(4) Foxp3/Transcription Factor Fix/Perm Concentrate (4×) (Cat. No. TNB-1020-L050) (Solution A) in FOXP3/Transcription Factor Staining kit (TONBO biosciences) was diluted with Foxp3/Transcription Factor Fix/Perm Diluent (1×) (Cat. No. TNB-1022-L160) (for dilution of Solution A) to prepare 1× Solution A.
(5) 1 mL of 1× Solution A was added to each tube and mixed by gentle pipetting. Subsequently, it was left at room temperature for 30 min, centrifuged at 300×g for […], and the supernatant was discarded.
(6) Flow Cytometry Perm Buffer (10×) (Cat. No. TNB-1213-L150) (Solution B) in the kit was diluted 10-fold with water to prepare 1× Solution B.
(7) 2 mL of 1× Solution B was added to the tube and centrifuged at 300×g for 5 min. The supernatant was discarded. 2 μL of 2% normal mouse serum/PBS was added to the tube and the tube was gently pipetted. Subsequently, it was left at room temperature for 15 min.
(8) In the CTLA-4 measurement, 20 μL of anti-CTLA-4 antibody (BECKMAN COULTER, CD152-PE clone BN13I M2282) or mouse IgG2a (BECKMAN COULTER, IgG2a (Mouse)-PE A09142) for the control was added to the tube and the tube was gently stirred. Subsequently, it was left in the dark at room temperature for 30 min, and 2 mL of the 1× Solution B was added thereto, the mixture was centrifuged at 300×g for 5 min, and the supernatant was discarded. 2 mL of the 1× Solution B was added to the tube again, the mixture was centrifuged at 300×g for 5 min, and the supernatant was discarded.
(9) Within 2 hours after the solution in the tube was suspended in 0.5 mL of 1% BSA/PBS, and the fluorescence at 577 nm was measured with 488 nm excitation with a flow cytometer (Sony: Cell Sorter SH800). The results were analyzed with software, FlowJo (Tree Star Inc.). The mean peak fluorescence intensity (MFI) of CTLA-4 and mean peak fluorescence intensity of isotype control IgG2a were calculated from histgrams of the measured fluorescence intensity and number of cells, and mean fluorescence intensity of IgG2a was subtracted from that of CTLA-4. Experiments were conducted in n=3, and the average values were shown.

[1] = Homo sapiens, 48 h, 25.0 μmol/L, DMSO control = 100%, read-out: % against control (CTLA-4 expression)

Compound | IL-10 (ng/10^6 cells) ± standard deviate (n = 3) (IL-10; 10 μmol/L) [ng/10^6 cells] | IL-10 (ng/10^6 cells) ± standard deviate (n = 3) (IL-10; 20 μmol/L) [ng/10^6 cells] | activity at 10 µM (IL-10; 10 μmol/L) [%] | activity at 20 µM (IL-10; 20 μmol/L) [%] | IL-10 (ng/10^6 cells) ± standard deviate (n = 3) (IL-10; 12.5 μmol/L) [ng/10^6 cells] | IL-10 (ng/10^6 cells) ± standard deviate (n = 3) (IL-10; 25.0 μmol/L) [ng/10^6 cells] | activity at 12.5 µM (IL-10; 12.5 μmol/L) [%] | activity at 25 µM (IL-10; 25.0 μmol/L) [%] | Peak MFI of CTLA-4 (CTLA-4; 25.0 μmol/L) | activity at 25 µM (CTLA-4; [1]) [%] | also measured
COC(=O)C1=CN(CCc2c[nH]c3ccccc23)C=C2[C@@H]1CC(OC)O[C@H]2C (some centres unmarked) [Compound 3] | 14.8 ± 0.3 | 11.8 ± 0.3 | 80 | 63.7 | – | – | – | – | – | – | –
COC(=O)C1=CN2CCc3c([nH]c4ccccc34)[C@H]2[C@@H]2C(CO)=CC[C@H]12 [Compound 4] | 8.0 ± 0.2 | 4.3 ± 0.5 | 42.9 | 23 | – | – | – | – | – | – | Peak MFI of CTLA-4 (CTLA-4; 10 μmol/L): 796.0; Peak MFI of CTLA-4 (CTLA-4; 20 μmol/L): 621.0; activity at 10 µM (CTLA-4; Homo sapiens, 48 h, 10 μmol/L, DMSO control = 100%, read-out: % against control (CTLA-4 expression)): 93.4%; activity at 20 µM (CTLA-4; Homo sapiens, 48 h, 20 μmol/L, DMSO control = 100%, read-out: % against control (CTLA-4 expression)): 72.9%
COC(=O)C1=CN2CCc3c([nH]c4ccccc34)[C@@H]2[C@@]2(O)C(CO)=CC[C@H]12 [Compound 5] | 19.7 ± 0.2 | 14.9 ± 0.4 | 106 | 80.5 | – | – | – | – | – | – | –
COC(=O)C1=CN(CCc2c[nH]c3ccccc23)C(O)[C@H]2[C@@H]1C=CC2(O)CO (some centres unmarked) [Compound 6] | 17.6 ± 0.7 | 15.2 ± 0.4 | 95.2 | 81.8 | – | – | – | – | – | – | –
CC1C(C=O)=C2CCOC(=O)C2=CN1CCc1c[nH]c2ccccc12 (centres unmarked) [Compound 7] | 17.9 ± 0.6 | 15.4 ± 0.4 | 96.5 | 83.1 | – | – | – | – | – | – | –
COC(=O)C1=CN2CCc3c([nH]c4cc(OC)ccc34)[C@@H]2[C@@H]2[C@@H](C)[C@@H](O)C[C@H]12 [Compound 8] | – | – | – | – | 15.5 ± 1.2 | 7.9 ± 0.4 | 94.6 | 48.4 | 361 | 50 | –
COC(=O)C1=CN2CCc3c([nH]c4cc(Cl)ccc34)[C@@H]2[C@@H]2[C@@H](C)[C@@H](O)C[C@H]12 [Compound 9] | – | – | – | – | 11.1 ± 1.3 | 6.1 ± 1.3 | 67.7 | 37.5 | 539 | 52.8 | Peak MFI of CTLA-4 (CTLA-4; 12.5 μmol/L): 778; activity at 12.5 µM (CTLA-4; Homo sapiens, 48 h, 12.5 μmol/L, DMSO control = 100%, read-out: % against control (CTLA-4 expression)): 76.3%
COC(=O)C1=CN2CCc3c([nH]c4ccc(OC)cc34)[C@@H]2[C@@H]2[C@@H](C)[C@@H](O)C[C@H]12 [Compound 10] | – | – | – | – | 8.8 ± 0.4 | 5.6 ± 0.3 | 93.5 | 59.6 | 570 | 56.3 | –
COC(=O)C1=CN2CCc3c([nH]c4c(C)cccc34)[C@@H]2[C@@H]2[C@@H](C)[C@@H](O)C[C@H]12 [Compound 11] | – | – | – | – | 7.4 ± 0.2 | 5.6 ± 0.3 | 78.2 | 55.4 | 602 | 59.5 | –
